From PubChem BioAssay (NCI)
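Cultured in 96-well plates, cells were exposed to test compound for 48 hours across five concentrations. At the TGI there is no net growth.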

What was measured:
Assay in all cases: NCI tumour cell line growth inhibition, 48 h
DLD-1 colon = system: DLD-1 colon
HOP-18 NSCLC = system: HOP-18 NSCLC
M19-MEL melanoma = system: M19-MEL melanoma
P388/ADR leukemia = system: P388/ADR leukemia
SNB-78 CNS = system: SNB-78 CNS
XF 498 CNS = system: XF 498 CNS
LXFL 529 NSCLC = system: LXFL 529 NSCLC
786-0 renal = system: 786-0 renal

SMILES | TGI (DLD-1 colon) | TGI (HOP-18 NSCLC) | TGI (M19-MEL melanoma) | TGI (P388/ADR leukemia) | TGI (SNB-78 CNS) | TGI (XF 498 CNS) | TGI (LXFL 529 NSCLC) | TGI (786-0 renal)
CCOC(=O)CNC(=O)N(CC)C12CC3CC(CC(C3)C1)C2 | 44.9 µM | 536 µM | 380 µM | 421 µM | 474 µM | 342 µM | – | –
CC(=O)Nc1ccc(/C=C/c2ccc(NC(=O)Nc3ccc(/C=C/c4ccc(NC(C)=O)cc4S(=O)(=O)O)c(S(=O)(=O)O)c3)cc2S(=O)(=O)O)c(S(=O)(=O)O)c1 | > 100 µM | > 100 µM | > 100 µM | – | > 100 µM | > 100 µM | – | –
CC1CC2=C(S(=O)(=O)c3ccccc3)CC(S(=O)(=O)c3ccccc3)(S(=O)(=O)c3ccccc3)CC21 (centres undefined) | > 100 µM | > 100 µM | – | – | – | > 100 µM | – | –
Clc1ccc(C[P+](c2ccccc2)(c2ccccc2)c2ccccc2)c(Cl)c1 | – | – | 11.5 µM | – | 11 µM | 4.4 µM | 12.5 µM | –
CCOC(=O)c1ccc(N[C@@H]2c3cc4c(cc3C(c3cc(OC)c(O)c(OC)c3)[C@H]3C(=O)OCC32)OCO4)cc1O (some centres undefined) | 4.58 µM | > 54.4 µM | > 55.1 µM | 0.324 µM | > 100 µM | 16.9 µM | – | –
C/C(=N/NC(N)=S)c1ccc[nH]1 | – | – | – | – | – | – | – | > 100 µM
COc1ccc(S(=O)(=O)c2ccccc2[N+](=O)[O-])cc1 | > 100 µM | > 100 µM | > 100 µM | – | – | – | > 100 µM | –
